Experimental data from patent US10617690B2 (priority 2015, dated 2020).

Columns and labels:
[1] = molecular target: JAK1 protein kinase (Homo sapiens, UniProt P23458); experiment: biochemical; conditions: 38 uM ATP, 90 min
Method: In Vitro Activity Test of Jak1, Jak 2 and Jak 3 Kinase
Recombinant humanized JAK1, JAK2 and JAK3 […] were all purchased from Life technology. LANCE Ultra ULight™-JAK-1(Tyr1023) peptide and LANCE Eu-W1024 Anti-phosphotyrosine (PT66) were both purchased from PerkinElmer. Envision (PerkinElmer) was used to read a plate.
Three dilution of a test compound was prepared, and 11 final concentrations were obtained: 10 uM to 0.17 nM. Each concentration had two repeat wells. The content of DMSO in a detection reaction was 1%.
2 nM JAK1 protein kinase, 50 nM LANCE Ultra ULight™-JAK-1(Tyr1023) peptide, 38 uM ATP, 50 mM HEPES (pH7.5), 10 mM MgCl2, 1 mM EGTA, 2 mM DTT, and 0.01% BRIJ-35. Detection plate was White Proxiplate 384-Plus plate (PerkinElmer), the reaction was conducted for 90 min at room temperature, and reaction system was 10 ul.
10 ul detection reagent was added into the reaction plate, wherein the final concentration of LANCE Eu-W1024 Anti-phosphotyrosine (PT66) was 2 nM, the final concentration of EDTA was 10 mM, incubation was conducted for 60 min at room temperature, and the plate was read by the Envision.
The reading was converted into a suppression ratio as follow equation: (%)=([…])/(Max−Min)*100%. IC50 data was detected by 4 parametric curve fitting (Model 205 in XLFIT5, iDBS), see Table 1.

[2] = molecular target: T1, JAK3 (Homo sapiens, UniProt P52333); experiment: In vitro activity test of JAK3 kinase (LANCE Ultra TR-FRET); format: biochemical;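 further: recombinant human JAK3 phosphorylating ULight-JAK-1(Tyr1023) peptide at 4 µM ATP, with 1% DMSO, detected by Eu-anti-phosphotyrosine TR-FRET on Envision and converted to percent inhibition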
T1 construct: purchased Life technology
T1 sequence (P52333 1-1124): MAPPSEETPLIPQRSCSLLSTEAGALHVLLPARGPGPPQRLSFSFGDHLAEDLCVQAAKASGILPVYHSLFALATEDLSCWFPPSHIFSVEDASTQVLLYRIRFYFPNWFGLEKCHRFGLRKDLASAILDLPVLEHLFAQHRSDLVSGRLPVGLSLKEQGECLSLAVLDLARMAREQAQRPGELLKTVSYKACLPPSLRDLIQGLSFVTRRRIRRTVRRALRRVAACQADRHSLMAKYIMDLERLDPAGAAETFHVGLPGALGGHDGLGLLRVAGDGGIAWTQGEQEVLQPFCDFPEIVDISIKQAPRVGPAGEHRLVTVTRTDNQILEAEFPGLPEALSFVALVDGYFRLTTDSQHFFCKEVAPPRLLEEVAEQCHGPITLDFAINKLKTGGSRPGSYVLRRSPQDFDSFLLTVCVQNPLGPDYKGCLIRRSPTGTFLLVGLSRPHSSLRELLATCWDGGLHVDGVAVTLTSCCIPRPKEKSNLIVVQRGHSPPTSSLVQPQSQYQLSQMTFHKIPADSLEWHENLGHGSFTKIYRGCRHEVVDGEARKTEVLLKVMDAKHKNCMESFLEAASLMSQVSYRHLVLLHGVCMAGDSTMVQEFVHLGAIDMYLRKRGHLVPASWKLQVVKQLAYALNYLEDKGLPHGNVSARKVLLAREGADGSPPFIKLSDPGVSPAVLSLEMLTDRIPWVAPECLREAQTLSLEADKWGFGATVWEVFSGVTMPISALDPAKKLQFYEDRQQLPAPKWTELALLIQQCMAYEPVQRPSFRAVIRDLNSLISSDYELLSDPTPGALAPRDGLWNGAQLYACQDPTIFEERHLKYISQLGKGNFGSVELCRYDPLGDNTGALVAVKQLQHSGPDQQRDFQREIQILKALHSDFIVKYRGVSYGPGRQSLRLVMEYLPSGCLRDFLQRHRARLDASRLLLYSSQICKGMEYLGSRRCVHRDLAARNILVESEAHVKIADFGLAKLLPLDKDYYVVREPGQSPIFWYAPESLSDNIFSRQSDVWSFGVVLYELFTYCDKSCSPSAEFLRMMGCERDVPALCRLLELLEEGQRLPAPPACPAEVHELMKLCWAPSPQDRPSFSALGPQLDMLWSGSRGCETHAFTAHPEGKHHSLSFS
Method: (§1) Recombinant humanized JAK1, JAK2 and JAK3 protease were all purchased from Life technology. LANCE Ultra ULight™-JAK-1(Tyr1023) peptide and LANCE Eu-W1024 Anti-phosphotyrosine (PT66) were both purchased from PerkinElmer. Envision (PerkinElmer) was used to read a plate.
0.05 nM protein kinase, 50 nM LANCE Ultra ULight™-JAK-1(Tyr1023) peptide, 4 uM ATP, 50 mM HEPES (pH7.5), 10 mM MgCl2, 1 mM EGTA, 2 mM DTT, and 0.01% BRIJ-35.
(§2) The reading was converted into a suppression ratio as follow equation: (%)=(Min−Ratio)/(Max−Min)*100%.

[3] = molecular target: JAK2 protein kinase (Homo sapiens, UniProt O60674); experiment: biochemical; conditions: 12 uM ATP, 60 min;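 further: recombinant human JAK2 with ULight-labelled JAK-1(Tyr1023) peptide substrate, phosphorylation detected by TR-FRET using Eu-labelled anti-phosphotyrosine antibody, 1% DMSO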
Sequence of JAK2 protein kinase (O60674 whole entry): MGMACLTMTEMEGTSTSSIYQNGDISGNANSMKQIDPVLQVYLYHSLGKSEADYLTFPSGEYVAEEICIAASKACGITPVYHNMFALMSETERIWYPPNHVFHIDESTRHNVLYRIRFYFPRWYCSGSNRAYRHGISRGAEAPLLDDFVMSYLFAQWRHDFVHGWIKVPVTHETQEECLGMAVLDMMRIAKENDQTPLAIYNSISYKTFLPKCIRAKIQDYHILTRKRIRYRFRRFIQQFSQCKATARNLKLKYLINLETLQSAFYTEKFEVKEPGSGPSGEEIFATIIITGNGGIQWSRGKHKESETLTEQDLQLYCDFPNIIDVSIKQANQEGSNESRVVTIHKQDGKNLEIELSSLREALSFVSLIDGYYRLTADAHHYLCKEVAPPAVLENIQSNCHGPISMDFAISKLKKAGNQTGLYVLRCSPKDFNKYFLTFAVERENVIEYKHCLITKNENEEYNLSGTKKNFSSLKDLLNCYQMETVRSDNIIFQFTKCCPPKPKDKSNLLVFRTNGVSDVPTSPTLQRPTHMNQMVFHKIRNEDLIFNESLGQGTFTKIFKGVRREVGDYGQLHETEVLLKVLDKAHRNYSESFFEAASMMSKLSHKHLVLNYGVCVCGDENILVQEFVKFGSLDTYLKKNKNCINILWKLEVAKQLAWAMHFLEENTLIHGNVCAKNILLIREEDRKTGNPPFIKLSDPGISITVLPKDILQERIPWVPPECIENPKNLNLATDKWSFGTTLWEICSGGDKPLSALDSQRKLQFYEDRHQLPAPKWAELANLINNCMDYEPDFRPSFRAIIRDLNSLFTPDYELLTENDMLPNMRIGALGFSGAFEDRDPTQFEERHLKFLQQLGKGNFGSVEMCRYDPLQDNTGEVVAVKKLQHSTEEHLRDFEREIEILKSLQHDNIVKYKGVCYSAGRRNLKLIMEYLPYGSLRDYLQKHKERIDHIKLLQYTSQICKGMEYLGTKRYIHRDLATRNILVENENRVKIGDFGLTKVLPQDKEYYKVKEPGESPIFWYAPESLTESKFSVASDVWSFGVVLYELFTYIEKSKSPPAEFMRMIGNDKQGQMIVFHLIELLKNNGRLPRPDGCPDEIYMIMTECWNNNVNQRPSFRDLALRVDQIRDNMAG
Source text: as §1, §2

Sequence of JAK1 protein kinase (P23458 whole entry): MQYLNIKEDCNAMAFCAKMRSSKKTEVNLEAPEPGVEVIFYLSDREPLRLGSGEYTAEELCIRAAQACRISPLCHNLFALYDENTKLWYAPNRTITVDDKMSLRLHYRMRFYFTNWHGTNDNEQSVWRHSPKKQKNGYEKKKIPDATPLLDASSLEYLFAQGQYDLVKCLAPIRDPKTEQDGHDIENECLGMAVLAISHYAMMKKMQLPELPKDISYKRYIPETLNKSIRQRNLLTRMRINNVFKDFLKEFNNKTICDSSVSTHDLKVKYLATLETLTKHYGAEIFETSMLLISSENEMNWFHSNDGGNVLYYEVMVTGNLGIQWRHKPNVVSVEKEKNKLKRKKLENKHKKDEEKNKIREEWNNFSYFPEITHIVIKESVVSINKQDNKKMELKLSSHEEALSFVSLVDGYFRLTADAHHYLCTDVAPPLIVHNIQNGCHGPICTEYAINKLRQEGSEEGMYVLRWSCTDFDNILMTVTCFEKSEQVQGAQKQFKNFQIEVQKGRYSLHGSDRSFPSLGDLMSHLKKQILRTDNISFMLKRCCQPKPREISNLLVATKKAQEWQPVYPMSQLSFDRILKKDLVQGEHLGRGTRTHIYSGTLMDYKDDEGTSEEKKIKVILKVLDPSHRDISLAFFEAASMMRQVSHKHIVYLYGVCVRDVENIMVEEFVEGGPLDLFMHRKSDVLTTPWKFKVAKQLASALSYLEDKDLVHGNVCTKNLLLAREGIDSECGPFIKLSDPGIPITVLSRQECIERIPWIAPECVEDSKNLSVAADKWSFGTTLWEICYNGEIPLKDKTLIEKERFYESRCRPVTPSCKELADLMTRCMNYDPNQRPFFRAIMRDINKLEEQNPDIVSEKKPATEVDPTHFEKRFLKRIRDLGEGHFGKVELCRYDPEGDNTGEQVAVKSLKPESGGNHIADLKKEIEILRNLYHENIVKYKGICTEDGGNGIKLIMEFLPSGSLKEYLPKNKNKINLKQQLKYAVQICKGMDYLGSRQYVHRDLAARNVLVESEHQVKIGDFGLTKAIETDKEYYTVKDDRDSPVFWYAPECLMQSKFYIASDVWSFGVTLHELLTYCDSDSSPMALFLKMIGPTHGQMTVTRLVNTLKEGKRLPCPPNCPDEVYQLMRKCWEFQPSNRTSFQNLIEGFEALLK

IC50 [1] [nM] | IC50 [2] [nM] | IC50 [3] [nM] | Structure (SMILES)
100 to 1000 | > 1000 | > 1000 | CN(c1ncnc2[nH]ccc12)N1CCC[C@H](C(=O)NCC#N)C1 (single isomer, unassigned) [WX09, (S or R)—N-(cyanomethyl-1-[methyl(7H-pyrrolo[2,3-d]pyrimidin-4-yl)amino]piperidyl)-3-formamide]
< 10 | 10 to 100 | < 10 | CN(c1ncnc2[nH]ccc12)N1CCC(C(=O)NCC(F)(F)F)C1 (single isomer, unassigned) [WX32, (R or S)-1-[methyl(7H-pyrrolo[2,3-d]pyrimidin-4-yl)amino]-N-(2,2,2-trifluoroethyl) pyrrolidyl-3-formamide]
10 to 100 |  | 100 to 1000 | CN(c1ncnc2[nH]ccc12)N1CCC(C(=O)NCC(F)(F)F)C1 (single isomer, unassigned) [WX33, (S or R)-1-[methyl(7H-pyrrolo[2,3-d]pyrimidin-4-yl)amino]-N-(2,2,2-trifluoroethyl)pyrrolidyl-3-formamide]
< 10 | < 10 | < 10 | CN(c1ncnc2[nH]ccc12)N1CCC[C@@H](C(=O)NCC(F)F)C1 (single isomer, unassigned) [WX49, (3R or 3S)-1-[methyl(7H-pyrrole[2,3-d]pyrimidine-4-)amino]-N-(2,2-difluoroethyl)piperidyl-3-formamide]
100 to 1000 | 100 to 1000 | > 1000 | CN(c1ncnc2[nH]ccc12)N1CCC[C@H](C(=O)NCC(F)F)C1 (single isomer, unassigned) [WX50, (3S or 3R)-1-[methyl(7H-pyrrole[2,3-d]pyrimidine-4-)amino]-N-(2,2-difluoroethyl)piperidyl-3-formamide]
> 1000 | > 1000 | > 1000 | CN(c1ncnc2[nH]ccc12)N1CCC[C@@H](C(=O)NCC(F)(F)C(F)(F)F)C1 (single isomer, unassigned) [WX51, (3R or 3S)-1-[methyl(7H-pyrrole[2,3-d]pyrimidine-4-)amino]-N-(2,2,3,3,3-pentafluoropropyl)piperidyl-3-formamide]
< 10 | 10 to 100 | 10 to 100 | CN(c1ncnc2[nH]ccc12)N1CCC[C@H](C(=O)NCC(F)(F)C(F)(F)F)C1 (single isomer, unassigned) [WX52, (3S or 3R)-1-[methyl(7H-pyrrole[2,3-d]pyrimidine-4-)amino]-N-(2,2,3,3,3-pentafluoropropyl)piperidyl-3-formamide]
< 10 | 10 to 100 | 10 to 100 | O=C(NCC(F)(F)F)C1CCCN(Nc2ncnc3[nH]ccc23)C1 (stereo not shown) [WX01, 1-((7H-pyrrolo[2,3-d]pyrimidin-4-yl)amino)-N-(2,2,2-trifluoroethyl)piperidyl-3-formamide]
10 to 100 | 10 to 100 | 100 to 1000 | CN(CC(F)(F)F)C(=O)C1CCCN(N(C)c2ncnc3[nH]ccc23)C1 (stereo not shown) [WX02, N-methyl-1-(methyl(7H-pyrrolo[2,3-d]pyrimidin-4-yl)amino)-(2,2,2-trifluoroethyl)piperidyl-3-formamide]
< 10 | 10 to 100 | 10 to 100 | N#CCNC(=O)C1CCCN(Nc2ncnc3[nH]ccc23)C1 (stereo not shown) [WX03, N-(cyanomethyl)-1-(7H-pyrrolo[2,3-d]pyrimidin-4-yl-amino)piperidyl-3-formamide]
10 to 100 | 10 to 100 | 100 to 1000 | CCOC(=O)C1CCCN(N(C)c2ncnc3[nH]ccc23)C1 (stereo not shown) [WX10, Ethyl 1-[methyl(7H-pyrrolo[2,3-d]pyrimidin-4-yl)amino]piperidyl-3-carboxylate]
100 to 1000 | 100 to 1000 | 100 to 1000 | CN(c1ncnc2[nH]ccc12)N1CCCC(C(N)=O)C1 (stereo not shown) [WX11]
100 to 1000 | 100 to 1000 | > 1000 | CN(c1ncnc2[nH]ccc12)N1CCCC(NC(=O)CC#N)C1 (stereo not shown) [WX12]
10 to 100 | 100 to 1000 |  | CN(c1ncnc2[nH]ccc12)N1CCCC(C(=O)NCCC#N)C1 (stereo not shown) [WX16, N-(cyanoethyl)-1-(methyl(1H-pyrrole[2,3-d]pyridyl-4-)amino)piperidyl-3-formamide]
